# Test results reported in publication PMC7321114, “Anion Inhibition Studies of the Beta-Carbonic Anhydrase from Escherichia coli” (Molecules, 2020).
# Target: T1, CynT2 (Escherichia coli, UniProt P61517)
# T1 construct: gene can; full-length synthetic gene, 220 residues, no signal peptide, N-terminal His6 fusion (pET100D-Topo), expressed in E. coli BL21(DE3) codon plus, about 29 kDa subunit, tag removal not mentioned
# Assay: stopped-flow CO2 hydration assay
# Assay type: biochemical
# Details: CO2 substrate 1.7-17 mM, pH 8.3, 20 mM Tris, 20 mM NaClO4, 15 min preincubation; read-out: KI (mM) ^1 / CynT2
# T1 sequence (P61517 whole entry, the tested form may be a part): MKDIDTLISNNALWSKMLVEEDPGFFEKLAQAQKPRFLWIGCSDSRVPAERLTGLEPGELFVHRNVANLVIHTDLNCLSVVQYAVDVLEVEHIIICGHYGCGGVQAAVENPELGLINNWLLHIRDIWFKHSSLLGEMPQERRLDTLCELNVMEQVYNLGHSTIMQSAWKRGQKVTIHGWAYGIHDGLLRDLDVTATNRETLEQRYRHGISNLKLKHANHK
row,SMILES,Ki [mM]
1,F[P-](F)(F)(F)(F)F [PF6^−],> 10
2,OB1OB2OB(O)OB(O1)O2 [B4O7^2−],0.25

# Same assay, conditions: read-out: KI (mM) ^1 / CynT2
row,SMILES,Ki [mM]
1,O=S(=O)(O)OOS(=O)(=O)O [S2O8^2−],6.4
2,O=S(=O)(O)NS(=O)(=O)O [NH(SO3)2^2−],1.5
3,CCN(CC)C(=S)S [EtNCS2^−],0.084
4,NS(=O)(=O)O [NH2SO3H],0.0025
5,O=[Se](=O)(O)O [SeO4^2−],3.1
6,Cl [Cl^−],6.7
7,NS(N)(=O)=O [NH2SO2NH2],0.011
8,S [HS^−],2.7
9,Br [Br^−],3.8
10,N#CO [CNO^−],0.58
11,N#CS [SCN^−],5.7
12,O=[Te](=O)(O)O [TeO4^2−],0.51
13,OB(O)c1ccccc1 [PhB(OH)2],0.0028
14,[O-][Cl+3]([O-])([O-])O [ClO4^−],> 100
15,O=S(=O)(O)F [FSO3^−],0.83
16,I [I^−],> 10
17,[O]=[V]([OH])([OH])[O][V](=[O])([OH])[OH] [V2O7^2−],> 10
18,F [F^−],9.4
19,O=S(O)O [HSO3^−],3.7
20,S=C(S)S [CS3^2−],3.1
21,N#C[SeH] [SeCN^−],3.1
22,[O]=[Ru](=[O])(=[O])[OH] [RuO4^−],9.5
23,O=S(=O)(O)O [SO4^2−],1.7
24,[O]=[Re](=[O])(=[O])[OH] [ReO4^−],> 10
25,O=[N+]([O-])O [NO3^−],2.4
26,O=S(=O)(O)C(F)(F)F [CF3SO3^−],> 10
27,O=P(O)(O)OP(=O)(O)O [P2O7^2−],> 10
28,O=NO [NO2^−],4.9
